Measurements: the supplement of paper PMC10307832

Tests used:
Assay in all cases: relative viability (nuclei count vs DMSO), 5 days (fraction); higher = more cells survive
201T = test system: 201T
In short: (§1)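 A single step with final 0.05% Triton X-100, 1% formaldehyde and 1 ug/ml Hoechst fixed the cells and stained nuclei 5 days after treatment. Lung cancer cell lines in 1536-well plates had been treated by pin tool the day after seeding with one drug alone or a fixed anchor-drug dose plus five library-drug doses (not always all listed) in √10 steps, and nuclei were counted on 4× images. Relative viability is the ratio of nuclei in treated wells to nuclei in vehicle wells, taken as the median of duplicate plates.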

BEN = test system: BEN
In short: as §1

COR-L 105 = test system: COR-L 105
In short: as §1

EKVX = test system: EKVX
In short: as §1

EPLC-272H = test system: EPLC-272H
In short: as §1

H3255 = test system: H3255
In short: as §1

HCC-827 = test system: HCC-827
In short: as §1

LCLC-97TM1 = test system: LCLC-97TM1
In short: as §1

LOU-NH91 = test system: LOU-NH91
In short: as §1

LU99A = test system: LU99A
In short: as §1

NCI-H1437 = test system: NCI-H1437
In short: as §1

NCI-H1666 = test system: NCI-H1666
In short: as §1

NCI-H1975 = test system: NCI-H1975
In short: as §1

NCI-H2085 = test system: NCI-H2085
In short: as §1

NCI-H2087 = test system: NCI-H2087
In short: as §1

NCI-H2170 = test system: NCI-H2170
In short: as §1

NCI-H2342 = test system: NCI-H2342
In short: as §1

NCI-H647 = test system: NCI-H647
In short: as §1

NCI-H650 = test system: NCI-H650
In short: as §1

PC-3 [JPC-3] = test system: PC-3 [JPC-3]
In short: as §1

SW 1573 = test system: SW 1573
In short: as §1

**Q.** What does the source list for `CCN(CC)CCCCNc1ncc2cc(-c3cc(OC)cc(OC)c3)c(NC(=O)NC(C)(C)C)nc2n1` + Cc1nc(Nc2ncc(C(=O)Nc3c(C)cccc3Cl)s2)cc(N2CCN(CCO)CC2)n1 [Dasatinib] (partner 0.075 µM)?
**A.** relative viability (201T; first compound 0.01 µM): 0.553; relative viability (201T; first compound 0.03162 µM): 0.568; relative viability (201T; first compound 0.1 µM): 0.677; relative viability (201T; first compound 0.3162 µM): 0.568; relative viability (201T; first compound 1 µM): 0.635; relative viability (BEN; first compound 0.01 µM): 0.298; relative viability (BEN; first compound 0.03162 µM): 0.282; relative viability (BEN; first compound 0.1 µM): 0.359; relative viability (BEN; first compound 0.3162 µM): 0.353; relative viability (BEN; first compound 1 µM): 0.26; relative viability (COR-L 105; first compound 0.01 µM): 0.297; relative viability (COR-L 105; first compound 0.03162 µM): 0.282; relative viability (COR-L 105; first compound 0.1 µM): 0.354; relative viability (COR-L 105; first compound 0.3162 µM): 0.381; relative viability (COR-L 105; first compound 1 µM): 0.279; relative viability (EKVX; first compound 0.01 µM): 0.547; relative viability (EKVX; first compound 0.03162 µM): 0.604; relative viability (EKVX; first compound 0.1 µM): 0.57; relative viability (EKVX; first compound 0.3162 µM): 0.563; relative viability (EKVX; first compound 1 µM): 0.349; relative viability (EPLC-272H; first compound 0.01 µM): 0.379; relative viability (EPLC-272H; first compound 0.03162 µM): 1.08; relative viability (EPLC-272H; first compound 0.1 µM): 0.322; relative viability (EPLC-272H; first compound 0.3162 µM): 0.294; relative viability (EPLC-272H; first compound 1 µM): 0.241; relative viability (H3255; first compound 0.01 µM): 0.342; relative viability (H3255; first compound 0.03162 µM): 0.305; relative viability (H3255; first compound 0.1 µM): 0.478; relative viability (H3255; first compound 0.3162 µM): 0.594; relative viability (H3255; first compound 1 µM): 0.339; relative viability (HCC-827; first compound 0.01 µM): 0.338; relative viability (HCC-827; first compound 0.03162 µM): 0.245; relative viability (HCC-827; first compound 0.1 µM): 0.352; relative viability (HCC-827; first compound 0.3162 µM): 0.335; relative viability (HCC-827; first compound 1 µM): 0.299; relative viability (LCLC-97TM1; first compound 0.01 µM): 0.806; relative viability (LCLC-97TM1; first compound 0.03162 µM): 0.877; relative viability (LCLC-97TM1; first compound 0.1 µM): 0.93; relative viability (LCLC-97TM1; first compound 0.3162 µM): 0.934; relative viability (LCLC-97TM1; first compound 1 µM): 0.838; relative viability (LOU-NH91; first compound 0.01 µM): 0.51; relative viability (LOU-NH91; first compound 0.03162 µM): 0.521; relative viability (LOU-NH91; first compound 0.1 µM): 0.629; relative viability (LOU-NH91; first compound 0.3162 µM): 0.718; relative viability (LOU-NH91; first compound 1 µM): 0.57; relative viability (LU99A; first compound 0.01 µM): 0.508; relative viability (LU99A; first compound 0.03162 µM): 0.611; relative viability (LU99A; first compound 0.1 µM): 0.712; relative viability (LU99A; first compound 0.3162 µM): 0.499; relative viability (LU99A; first compound 1 µM): 0.445; relative viability (NCI-H1437; first compound 0.01 µM): 0.366; relative viability (NCI-H1437; first compound 0.03162 µM): 0.504; relative viability (NCI-H1437; first compound 0.1 µM): 0.419; relative viability (NCI-H1437; first compound 0.3162 µM): 0.447; relative viability (NCI-H1437; first compound 1 µM): 0.335; relative viability (NCI-H1666; first compound 0.01 µM): 0.824; relative viability (NCI-H1666; first compound 0.03162 µM): 0.757; relative viability (NCI-H1666; first compound 0.1 µM): 0.942; relative viability (NCI-H1666; first compound 0.3162 µM): 0.884; relative viability (NCI-H1666; first compound 1 µM): 0.639; relative viability (NCI-H1975; first compound 0.01 µM): 0.369; relative viability (NCI-H1975; first compound 0.03162 µM): 0.403; relative viability (NCI-H1975; first compound 0.1 µM): 0.458; relative viability (NCI-H1975; first compound 0.3162 µM): 0.452; relative viability (NCI-H1975; first compound 1 µM): 0.313; relative viability (NCI-H2085; first compound 0.01 µM): 0.251; relative viability (NCI-H2085; first compound 0.03162 µM): 0.181; relative viability (NCI-H2085; first compound 0.1 µM): 0.278; relative viability (NCI-H2085; first compound 0.3162 µM): 0.231; relative viability (NCI-H2085; first compound 1 µM): 0.216; relative viability (NCI-H2087; first compound 0.01 µM): 0.993; relative viability (NCI-H2087; first compound 0.03162 µM): 0.797; relative viability (NCI-H2087; first compound 0.1 µM): 0.964; relative viability (NCI-H2087; first compound 0.3162 µM): 0.961; relative viability (NCI-H2087; first compound 1 µM): 0.888; relative viability (NCI-H2170; first compound 0.01 µM): 0.537; relative viability (NCI-H2170; first compound 0.03162 µM): 0.574; relative viability (NCI-H2170; first compound 0.1 µM): 0.643; relative viability (NCI-H2170; first compound 0.3162 µM): 0.818; relative viability (NCI-H2170; first compound 1 µM): 0.539; relative viability (NCI-H2342; first compound 0.01 µM): 0.296; relative viability (NCI-H2342; first compound 0.03162 µM): 0.345; relative viability (NCI-H2342; first compound 0.1 µM): 0.321; relative viability (NCI-H2342; first compound 0.3162 µM): 0.332; relative viability (NCI-H2342; first compound 1 µM): 0.31; relative viability (NCI-H647; first compound 0.01 µM): 0.189; relative viability (NCI-H647; first compound 0.03162 µM): 0.174; relative viability (NCI-H647; first compound 0.1 µM): 0.209; relative viability (NCI-H647; first compound 0.3162 µM): 0.218; relative viability (NCI-H647; first compound 1 µM): 0.0989; relative viability (NCI-H650; first compound 0.01 µM): 0.368; relative viability (NCI-H650; first compound 0.03162 µM): 0.454; relative viability (NCI-H650; first compound 0.1 µM): 0.468; relative viability (NCI-H650; first compound 0.3162 µM): 0.48; relative viability (NCI-H650; first compound 1 µM): 0.427; relative viability (PC-3 [JPC-3]; first compound 0.01 µM): 1.05; relative viability (PC-3 [JPC-3]; first compound 0.03162 µM): 1.07; relative viability (PC-3 [JPC-3]; first compound 0.1 µM): 1.06; relative viability (PC-3 [JPC-3]; first compound 0.3162 µM): 1.08; relative viability (PC-3 [JPC-3]; first compound 1 µM): 0.909; relative viability (SW 1573; first compound 0.01 µM): 0.355; relative viability (SW 1573; first compound 0.03162 µM): 0.537; relative viability (SW 1573; first compound 0.1 µM): 0.457; relative viability (SW 1573; first compound 0.3162 µM): 0.482; relative viability (SW 1573; first compound 1 µM): 0.326
